Data reported in patent publication US9365584B2, “Thieno [2,3-B] pyridinedione activators of AMPK and therapeutic uses thereof” (Poxel, priority 2009, dated 2016).

System: AMPK
Experiment: AMPK enzyme activity assay (Delfia technology, AMARA peptide substrate)
Type: biochemical
Settings: compound at 30 μM vs AMP at 200 μM
In short: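 Value is the ratio of compound (30 μM) to AMP (200 μM) response, each as % of basal control. Phosphorylation of the AMARA peptide after AMPK addition was read by Delfia with an anti-phosphoserine antibody.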

Row | SMILES | Activity: Ratio between the % of control (basal activity) of compound of formula (1) at 30 μM and the % of control (basal activity) of AMP (natural substrate) at 200 μM
1 | Cc1ccc(-c2c(F)sc3c2C(=O)C(F)(c2ccccc2)C(=O)N3)cc1O (centres unmarked) [No 116, 2,5-difluoro-3-(3-hydroxy-4-methyl-phenyl)-5-phenyl-7H-thieno[2,3-b]pyridine-4,6-dione] | C (C≧75%)
2 | Cc1ccc(C2(C)C(=O)Nc3sc(Cl)c(-c4cccc(C)c4)c3C2=O)cc1 (centres unmarked) [No 117, 2-chloro-5-methyl-3-(m-tolyl)-5-(p-tolyl)-7H-thieno[2,3-b]pyridine-4,6-dione] | A (0%<A<50%)
3 | COc1cc(C)ccc1-c1csc2c1C(=O)C(F)(c1ccccc1)C(=O)N2 (centres unmarked) [No 118, 5-fluoro-3-(2-methoxy-4-methyl-phenyl)-5-phenyl-7H-thieno[2,3-b]pyridine-4,6-dione] | B (50%≦B<75%)
4 | COc1cc(C)ccc1-c1c(F)sc2c1C(=O)C(F)(c1ccccc1)C(=O)N2 (centres unmarked) [No 119, 2,5-difluoro-3-(2-methoxy-4-methyl-phenyl)-5-phenyl-7H-thieno[2,3-b]pyridine-4,6-dione] | B (50%≦B<75%)
5 | O=C1Nc2scc(-c3ccc(Br)cc3)c2C(=O)C1(F)c1ccncc1 (centres unmarked) [No 124, 3-(4-bromophenyl)-5-fluoro-5-(4-pyridyl)-7H-thieno[2,3-b]pyridine-4,6-dione] | B (50%≦B<75%)
6 | COc1cccc(C2(C)C(=O)Nc3sc(Cl)c(-c4cccc(C)c4)c3C2=O)c1 (centres unmarked) [No 126, 2-chloro-5-(3-methoxyphenyl)-5-methyl-3-(m-tolyl)-7H-thieno[2,3-b]pyridine-4,6-dione] | B (50%≦B<75%)
7 | COc1cc(Br)ccc1-c1csc2c1C(=O)C(F)(c1ccccc1)C(=O)N2 (centres unmarked) [No 127, 3-(4-bromo-2-methoxy-phenyl)-5-fluoro-5-phenyl-7H-thieno[2,3-b]pyridine-4,6-dione] | A (0%<A<50%)
8 | COc1cc(Br)ccc1-c1c(F)sc2c1C(=O)C(F)(c1ccccc1)C(=O)N2 (centres unmarked) [No 128, 3-(4-bromo-2-methoxy-phenyl)-2,5-difluoro-5-phenyl-7H-thieno[2,3-b]pyridine-4,6-dione] | A (0%<A<50%)
9 | Cc1ccccc1-c1c(F)sc2c1C(=O)C(F)(c1ccccc1)C(=O)N2 (centres unmarked) [No 130, 2,5-difluoro-3-(o-tolyl)-5-phenyl-7H-thieno[2,3-b]pyridine-4,6-dione] | B (50%≦B<75%)
10 | O=C1Nc2sc(F)c(-c3ccccc3)c2C(=O)C1(F)c1cccc(C(F)(F)F)c1 (centres unmarked) [No 132, 2,5-difluoro-3-phenyl-5-[3-(trifluoromethyl)phenyl]-7H-thieno[2,3-b]pyridine-4,6-dione] | A (0%<A<50%)
11 | O=C1Nc2scc(-c3ccccc3)c2C(=O)C1(F)c1ccc(C(F)(F)F)cc1 (centres unmarked) [No 133, 5-fluoro-3-phenyl-5-[4-(trifluoromethyl)phenyl]-7H-thieno[2,3-b]pyridine-4,6-dione] | A (0%<A<50%)
12 | O=C1Nc2sc(F)c(-c3ccccc3)c2C(=O)C1(F)c1ccc(C(F)(F)F)cc1 (centres unmarked) [No 134, 2,5-difluoro-3-phenyl-5-[4-(trifluoromethyl)phenyl]-7H-thieno[2,3-b]pyridine-4,6-dione] | A (0%<A<50%)
13 | O=C1Nc2scc(-c3ccc(C(F)(F)F)cc3)c2C(=O)C1(F)c1ccccc1 (centres unmarked) [No 135, 5-fluoro-5-phenyl-3-[4-(trifluoromethyl)phenyl]-7H-thieno[2,3-b]pyridine-4,6-dione] | A (0%<A<50%)
14 | Cc1cccc(-c2c(F)sc3c2C(=O)C(F)(c2ccccc2)C(=O)N3)c1 (centres unmarked) [No 137, 2,5-difluoro-3-(m-tolyl)-5-phenyl-7H-thieno[2,3-b]pyridine-4,6-dione] | C (C≧75%)

Results, then the compound that gave them:

Row | Activity: Ratio between the % of control (basal activity) of compound of formula (1) at 30 μM and the % of control (basal activity) of AMP (natural substrate) at 200 μM | SMILES
15 | A (0%<A<50%) | CS(=O)(=O)c1cccc(-c2csc3c2C(=O)C(F)(c2ccccc2)C(=O)N3)c1 (centres unmarked) [No 120, 5-fluoro-3-(3-methylsulfonylphenyl)-5-phenyl-7H-thieno[2,3-b]pyridine-4,6-dione]
16 | C (C≧75%) | Cc1ccc(-c2csc3c2C(=O)C(F)(c2ccccc2)C(=O)N3)c(O)c1 (centres unmarked) [No 121, 5-fluoro-3-(2-hydroxy-4-methyl-phenyl)-5-phenyl-7H-thieno[2,3-b]pyridine-4,6-dione]
17 | C (C≧75%) | O=C1Nc2scc(-c3c(F)cccc3F)c2C(=O)C1(F)c1ccccc1 (centres unmarked) [No 122, 3-(2,6-difluorophenyl)-5-fluoro-5-phenyl-7H-thieno[2,3-b]pyridine-4,6-dione]
18 | C (C≧75%) | O=C1Nc2scc(-c3ccc(Br)cc3O)c2C(=O)C1(F)c1ccccc1 (centres unmarked) [No 123, 3-(4-bromo-2-hydroxy-phenyl)-5-fluoro-5-phenyl-7H-thieno[2,3-b]pyridine-4,6-dione]
19 | A (0%<A<50%) | O=C1Nc2scc(-c3ccccc3Br)c2C(=O)C1(F)c1ccccc1 (centres unmarked) [No 125, 3-(2-bromophenyl)-5-fluoro-5-phenyl-7H-thieno[2,3-b]pyridine-4,6-dione]
20 | B (50%≦B<75%) | Cc1ccccc1-c1csc2c1C(=O)C(F)(c1ccccc1)C(=O)N2 (centres unmarked) [No 129, 5-fluoro-3-(o-tolyl)-5-phenyl-7H-thieno[2,3-b]pyridine-4,6-dione]
21 | B (50%≦B<75%) | O=C1Nc2scc(-c3ccccc3)c2C(=O)C1(F)c1cccc(C(F)(F)F)c1 (centres unmarked) [No 131, 5-fluoro-3-phenyl-5-[3-(trifluoromethyl)phenyl]-7H-thieno[2,3-b]pyridine-4,6-dione]
22 | B (50%≦B<75%) | Cc1cccc(-c2csc3c2C(=O)C(F)(c2ccccc2)C(=O)N3)c1 (centres unmarked) [No 136, 5-fluoro-3-(m-tolyl)-5-phenyl-7H-thieno[2,3-b]pyridine-4,6-dione]
23 | B (50%≦B<75%) | O=C1Nc2scc(-c3ccccc3Cl)c2C(=O)C1(F)c1ccccc1 (centres unmarked) [No 138, 3-(2-chlorophenyl)-5-fluoro-5-phenyl-7H-thieno[2,3-b]pyridine-4,6-dione]
